Experimental data published in patent US20230295162A1 (EÖTVÖS LORÁND TUDOMÁNYEGYETEM, priority 2020, published 2023).
Where two headings read alike, the source gives them in different places.

Columns and labels:
[1] = system: H2228 lung cancer cell line; test: High-throughput screening, CellTiter-Glo cell viability assay at 100 nM; type: cell-based, human; details: Homo sapiens, NCI-H2228, HTS, compounds at 100 nM, 72 h, read-out: cytotoxicity expressed in IC50, H2228 (results of High throughput screening)
[2] = system: EBC-1 lung cancer cell line; test: as above; type: cell-based, human; details: Homo sapiens, EBC-1, HTS, compounds at 100 nM, 72 h, read-out: cytotoxicity expressed in IC50, EBC-1 (results of High throughput screening)
[3] = system: Panc1 pancreatic cancer cell line; test: CellTiter-Glo IC50 (Example 19); type: cell-based; details: Homo sapiens, PANC-1, 72 h
Outline: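 Cells were seeded at 1000 cells/well and kept at 37° C in 5% CO2. After compound treatment, medium was removed, CellTiter-Glo reagent added and luminescence read. Viability was expressed as % of untreated control, and IC50 came from variable-slope log(inhibitor) vs response non-linear regression.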

Panc-1 human cell line = test: Cytotoxicity on Panc-1, xCELLigence SP, IC50 after 24 h, 48 h, 72 h and 96 h (Example 22)
[4] = system: Panc-1 (pancreas, carcinoma) cells; test: Cell viability assay, CellTiter-Glo (Example 21); type: cell-based, human; details: 72 h treatment
Outline: (§1)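 Cells were seeded at optimized densities (Panc-1 750, FaDu 1000, Detroit 562 and MDA-MB-453 1500 cells/well), then treated with compound. Viability was read by CellTiter-Glo luminescence. Dose-response curves were fitted by four-parameter variable-slope non-linear regression.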

[5] = system: MDA-MB-453 (breast, carcinoma) cells; test: Cell viability assay, CellTiter-Glo (Example 21); type: cell-based, human; details: 72 h treatment
Outline: as §1

[6] = system: MDA-MB-231 (breast, adenocarcinoma) cells; test: Cell viability assay, CellTiter-Glo (Example 21); type: cell-based, human; details: 72 h treatment
Outline: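 Viability of MDA-MB-231 cells was quantified by luminescence using Promega's CellTiter-Glo® kit per manufacturer instructions. Cells, plated at a size- and growth-optimized density of 1500 cells/well in white flat-bottom 96 well plates, were treated and then read on a BioTek Synergy 2 reader; dose-response curves used four-parameter variable-slope non-linear regression in GraphPad Prism 8.4.2.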

[7] = system: DU 145 (prostate, carcinoma) cells; test: Cell viability assay, CellTiter-Glo (Example 21); type: cell-based, human; details: 72 h
Outline: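 DU 145 prostate carcinoma cells were plated at 1000 cells/well in white flat-bottom 96 well plates and exposed to compound. Viability was then determined by CellTiter-Glo® luminescence on a BioTek Synergy 2 reader, and dose-response curves were fitted in GraphPad Prism 8.4.2 with a four-parameter variable-slope non-linear regression.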

[8] = system: FaDu (pharynx, squamous cell carcinoma) cells; test: Cell viability assay, CellTiter-Glo (Example 21); type: cell-based, human; details: 72 h treatment
Outline: as §1

[9] = system: Capan-1 (pancreas, adenocarcinoma) cells; test: Cell viability assay, CellTiter-Glo (Example 21); type: cell-based, human; details: 72 h treatment
Outline: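 Viability of Capan-1 pancreatic adenocarcinoma cells was assessed using Promega's CellTiter-Glo® luminescence kit. Cells were plated at 1000 cells/well in white, flat-bottom 96 well plates, treated, then luminescence was recorded on a BioTek Synergy 2 reader. Dose-response curves were fitted in GraphPad Prism 8.4.2 with a four-parameter variable-slope non-linear regression.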

[10] = system: SCC-25 (tongue, squamous cell carcinoma) cells; test: Cell viability assay, CellTiter-Glo (Example 21); type: cell-based, human; details: 72 h treatment
Outline: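 Cell viability of SCC-25 cells was assessed by CellTiter-Glo luminescence after compound exposure. Cells were plated at 1000 cells/well, a density chosen for their size and growth rate, on white flat-bottom 96 well plates. Signal was recorded on a microplate reader, and dose-response curves were fitted in GraphPad Prism by four-parameter variable-slope non-linear regression.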

SCC-25 cell line = test: Additional in vitro IC50 tests (Table 3); type: cell-based; details: Homo sapiens
Outline: (§2)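 Cells at 1000/well, viability by CellTiter-Glo luminescence after compound treatment, as % of untreated control. IC50 from variable-slope log(inhibitor) vs response nonlinear regression.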

Detroit 562 cell line = test: Additional in vitro IC50 tests (Table 3); type: cell-based; details: Homo sapiens
Outline: as §2

EBC-1 cell line = test: Additional in vitro IC50 tests (Table 3); type: cell-based; details: Homo sapiens
Outline: as §2

H2228 cell line = test: Additional in vitro IC50 tests (Table 3); type: cell-based; details: Homo sapiens, NCI-H2228
Outline: as §2

Fadu cell line = test: Additional in vitro IC50 tests (Table 3); type: cell-based; details: Homo sapiens
Outline: as §2

Structure (SMILES): [N-]=[N+]=Nc1cccc(CN2CCC3=C(C2)C(=O)N(Cc2ccc(C(F)(F)F)cc2)C2=NCCN23)c1 [I/111, 7-(3-Azidobenzyl)-4-(4-(trifluoromethyl)benzyl)-2,4,6,7,8,9-hexahydroimidazo[1,2-a]pyrido[3,4-e]pyrimidin-5(1H)-one]
- IC50 [1]: < 100 nM
- IC50 [2]: < 100 nM
- IC50 [3]: 9 nM
- IC50 (Panc-1 human cell line; PANC-1, 72 h, read-out: IC50 (72 h) [nM]): 20.1 ± 1.68 nM
- IC50 (Panc-1 human cell line; PANC-1, 96 h, read-out: IC50 (96 h) [nM]): 8.58 ± 0.256 nM
- Panc-1 (pancreas, carcinoma) cell viability (% of control) ([4]; 3.7 nM): 106.1 ± 7.3 % of control
- Panc-1 (pancreas, carcinoma) cell viability (% of control) ([4]; 11.1 nM): 99.6 ± 1.4 % of control
- Panc-1 (pancreas, carcinoma) cell viability (% of control) ([4]; 100 nM): 50.1 ± 2.0 % of control
- Panc-1 (pancreas, carcinoma) cell viability (% of control) ([4]; 300 nM): 49.7 ± 1.2 % of control
- MDA-MB-453 (breast, carcinoma) cell viability (% of control) ([5]; 3.7 nM): 107.2 ± 5.9 % of control
- MDA-MB-453 (breast, carcinoma) cell viability (% of control) ([5]; 11.1 nM): 45.7 ± 5.0 % of control
- MDA-MB-453 (breast, carcinoma) cell viability (% of control) ([5]; 100 nM): 30.3 ± 1.0 % of control
- MDA-MB-453 (breast, carcinoma) cell viability (% of control) ([5]; 300 nM): 28.8 ± 0.4 % of control
- MDA-MB-231 (breast, adenocarcinoma) cell viability (% of control) ([6]; 3.7 nM): 102.7 ± 2.8 % of control
- MDA-MB-231 (breast, adenocarcinoma) cell viability (% of control) ([6]; 11.1 nM): 98.5 ± 2.1 % of control
- MDA-MB-231 (breast, adenocarcinoma) cell viability (% of control) ([6]; 100 nM): 56.9 ± 2.2 % of control
- MDA-MB-231 (breast, adenocarcinoma) cell viability (% of control) ([6]; 300 nM): 52.8 ± 2.7 % of control
- DU 145 cell viability ([7]; 3.7 nM): 93.6 ± 6.9 % of control
- DU 145 cell viability ([7]; 11.1 nM): 33.8 ± 5.0 % of control
- DU 145 cell viability ([7]; 100 nM): 7.1 ± 2.0 % of control
- DU 145 cell viability ([7]; 300 nM): 8.1 ± 1.9 % of control
- FaDu (pharynx, squamous cell carcinoma) cell viability (% of control) ([8]; 3.7 nM): 97.7 ± 3.9 % of control
- FaDu (pharynx, squamous cell carcinoma) cell viability (% of control) ([8]; 11.1 nM): 66.8 ± 12.0 % of control
- FaDu (pharynx, squamous cell carcinoma) cell viability (% of control) ([8]; 100 nM): 21.7 ± 5.4 % of control
- FaDu (pharynx, squamous cell carcinoma) cell viability (% of control) ([8]; 300 nM): 22.1 ± 4.8 % of control
- Capan-1 (pancreas, adenocarcinoma) cell viability (% of control) ([9]; 3.7 nM): 102.5 ± 4.0 % of control
- Capan-1 (pancreas, adenocarcinoma) cell viability (% of control) ([9]; 11.1 nM): 95.1 ± 8.2 % of control
- Capan-1 (pancreas, adenocarcinoma) cell viability (% of control) ([9]; 100 nM): 31.7 ± 1.7 % of control
- Capan-1 (pancreas, adenocarcinoma) cell viability (% of control) ([9]; 300 nM): 30.8 ± 3.3 % of control
- SCC-25 (tongue, squamous cell carcinoma) cell viability (% of control) ([10]; 3.7 nM): 98.3 ± 4.0 % of control
- SCC-25 (tongue, squamous cell carcinoma) cell viability (% of control) ([10]; 11.1 nM): 79.0 ± 11.0 % of control
- SCC-25 (tongue, squamous cell carcinoma) cell viability (% of control) ([10]; 100 nM): 32.5 ± 1.2 % of control
- SCC-25 (tongue, squamous cell carcinoma) cell viability (% of control) ([10]; 300 nM): 36.4 ± 0.9 % of control
- IC50 (SCC-25 cell line): 15 nM
- IC50 (Detroit 562 cell line): 3 nM
- IC50 (EBC-1 cell line): 8 nM
- IC50 (H2228 cell line): 13 nM
- IC50 (Fadu cell line): 11 nM
